Assay results: ChEMBL document CHEMBL3044568, “Synthesis, analgesic, anti-inflammatory, and in vitro antimicrobial activities of some novel quinazolin-4(3H)-one derivatives” (Med Chem Res, 2013)
In brackets after ≈: the same amount, converted by molar mass.

Tests used:
Rattus norvegicus [1] = assay: Ulcerogenecity in Rattus norvegicus Wistar albino (rat) stomach assessed as ulcer index administered 20 mg/kg, ip qd for 3 days measured on day 4 relative to aspirin; assay type: ADME, organism-based; set-up: dose 20 mg/kg, route intraperitoneal; conditions: in vivo, 72 h
Rattus norvegicus [2] = assay: Anti-inflammatory activity in Rattus norvegicus Wistar (rat) assessed as protection against carrageenan-induced paw edema at 10 mg/kg, po measured at 3 hr by plethysmographic analysis (reference value: 4 +/- 0.75%); assay type: functional
Mus musculus [3] = assay: Analgesic activity in Mus musculus […] albino (mouse) at 10 mg/kg, po measured at 3 hr by tail flick test (reference value: 3 +/- 0.41%)
Mus musculus [4] = assay: Analgesic activity in Mus musculus […] albino (mouse) at 10 mg/kg, po measured at 1 hr by tail flick test (reference value: 5 +/- 0.49%)
Rattus norvegicus [5] = assay: Anti-inflammatory activity in Rattus norvegicus Wistar (rat) assessed as protection against carrageenan-induced paw edema at 10 mg/kg, po measured at 30 min by plethysmographic analysis (reference value: 4 +/- 0.28%); assay type: functional
[6] = system: Staphylococcus epidermidis; assay: Antibacterial activity against Staphylococcus epidermidis ATCC 155 assessed as growth inhibition after 24 hr by agar streak dilution method; assay type: functional; conditions: ATCC 155, 24 h
Rattus norvegicus [7] = assay: Anti-inflammatory activity in Rattus norvegicus Wistar (rat) assessed as protection against carrageenan-induced paw edema at 20 mg/kg, po measured at 2 hr by plethysmographic analysis (reference value: 5 +/- 0.41%); assay type: functional
Rattus norvegicus [8] = assay: Anti-inflammatory activity in Rattus norvegicus Wistar (rat) assessed as protection against carrageenan-induced paw edema at 20 mg/kg, po measured at 30 min by plethysmographic analysis (reference value: 4 +/- 0.28%); assay type: functional
Rattus norvegicus [9] = assay: Ulcerogenecity in Rattus norvegicus Wistar albino (rat) stomach assessed as ulcer index administered 20 mg/kg, ip qd for 3 days measured on day 4 (reference value: 0.13 +/- 0.05 no unit); assay type: ADME, organism-based; set-up: dose 20 mg/kg, route intraperitoneal; conditions: in vivo, 72 h
Rattus norvegicus [10] = assay: Anti-inflammatory activity in Rattus norvegicus Wistar (rat) assessed as protection against carrageenan-induced paw edema at 10 mg/kg, po measured at 2 hr by plethysmographic analysis (reference value: 5 +/- 0.41%); assay type: functional
Mus musculus [11] = assay: Analgesic activity in Mus musculus […] albino (mouse) at 20 mg/kg, po measured at 30 min by tail flick test (reference value: 4 +/- 0.72%)
Klebsiella pneumoniae = assay: Antibacterial activity against Klebsiella pneumoniae ATCC 11298 assessed as growth inhibition after 24 hr by agar streak dilution method; assay type: functional; conditions: ATCC 11298, 24 h
Aspergillus niger = assay: Antifungal activity against Aspergillus niger ATCC 9029 assessed as growth inhibition after 48 hr by agar streak dilution method; assay type: functional; conditions: ATCC 9029, 48 h
Mus musculus [12] = assay: Analgesic activity in Mus musculus […] albino (mouse) at 20 mg/kg, po measured at 2 hr by tail flick test (reference value: 6 +/- 0.84%)
Micrococcus luteus = assay: Antibacterial activity against Micrococcus luteus ATCC 4698 assessed as growth inhibition after 24 hr by agar streak dilution method; assay type: functional; conditions: ATCC 4698, 24 h
Rattus norvegicus [13] = assay: Anti-inflammatory activity in Rattus norvegicus Wistar (rat) assessed as protection against carrageenan-induced paw edema at 20 mg/kg, po measured at 1 hr by plethysmographic analysis (reference value: 6 +/- 0.63%); assay type: functional
Rattus norvegicus [14] = assay: Anti-inflammatory activity in Rattus norvegicus Wistar (rat) assessed as protection against carrageenan-induced paw edema at 20 mg/kg, po measured at 3 hr by plethysmographic analysis (reference value: 4 +/- 0.75%); assay type: functional
Aspergillus fumigatus = assay: Antifungal activity against Aspergillus fumigatus ATCC 46645 assessed as growth inhibition after 48 hr by agar streak dilution method; assay type: functional; conditions: ATCC 46645, 48 h
Escherichia coli = assay: Antibacterial activity against Escherichia coli ATCC 25922 assessed as growth inhibition after 24 hr by agar streak dilution method; assay type: functional; conditions: ATCC 25922, 24 h
Mus musculus [15] = assay: Analgesic activity in Mus musculus […] albino (mouse) at 10 mg/kg, po measured at 30 min by tail flick test (reference value: 4 +/- 0.72%)
Rattus norvegicus [16] = assay: Ulcerogenecity in Rattus norvegicus Wistar albino (rat) stomach assessed as ulcer index administered 20 mg/kg, ip qd for 3 days measured on day 4 relative to diclofenac; assay type: ADME, organism-based; set-up: dose 20 mg/kg, route intraperitoneal; conditions: in vivo, 72 h
Bacillus cereus = assay: Antibacterial activity against Bacillus cereus ATCC 11778 assessed as growth inhibition after 24 hr by agar streak dilution method; assay type: functional; conditions: ATCC 11778, 24 h
Mus musculus [17] = assay: Analgesic activity in Mus musculus […] albino (mouse) at 20 mg/kg, po measured at 3 hr by tail flick test (reference value: 3 +/- 0.41%)
Staphylococcus aureus = assay: Antibacterial activity against Staphylococcus aureus ATCC 9144 assessed as growth inhibition after 24 hr by agar streak dilution method; assay type: functional; conditions: ATCC 9144, 24 h
Rattus norvegicus [18] = assay: Anti-inflammatory activity in Rattus norvegicus Wistar (rat) assessed as protection against carrageenan-induced paw edema at 10 mg/kg, po measured at 1 hr by plethysmographic analysis (reference value: 6 +/- 0.63%); assay type: functional
Pseudomonas aeruginosa = assay: Antibacterial activity against Pseudomonas aeruginosa […] assessed as growth inhibition after 24 hr by agar streak dilution method; assay type: functional
Mus musculus [19] = assay: Analgesic activity in Mus musculus […] albino (mouse) at 20 mg/kg, po measured at 1 hr by tail flick test (reference value: 5 +/- 0.49%)
Mus musculus [20] = assay: Analgesic activity in Mus musculus […] albino (mouse) at 10 mg/kg, po measured at 2 hr by tail flick test (reference value: 6 +/- 0.84%)

| Structure (SMILES) | Activity (Rattus norvegicus [2]) [%] | Activity (Mus musculus [3]) [%] | Activity (Mus musculus [4]) [%] | Activity (Rattus norvegicus [5]) [%] | MIC [6] [µg/mL] | Activity (Rattus norvegicus [7]) [%] | Activity (Rattus norvegicus [8]) [%] | Activity (Rattus norvegicus [10]) [%] | Activity (Mus musculus [11]) [%] | MIC (Klebsiella pneumoniae) [µg/mL] | MIC (Aspergillus niger) [µg/mL] | Activity (Mus musculus [12]) [%] | MIC (Micrococcus luteus) [µg/mL] | Activity (Rattus norvegicus [13]) [%] | Activity (Rattus norvegicus [14]) [%] | MIC (Aspergillus fumigatus) [µg/mL] | MIC (Escherichia coli) [µg/mL] | Activity (Mus musculus [15]) [%] | MIC (Bacillus cereus) [µg/mL] | Activity (Mus musculus [17]) [%] | further results |
| --- | --- | --- | --- | --- | --- | --- | --- | --- | --- | --- | --- | --- | --- | --- | --- | --- | --- | --- | --- | --- | --- |
| Cc1nc2ccccc2c(=O)n1-c1ccc(NC(=O)CN/N=C/c2ccc(Cl)cc2)cc1 | 34 | 35 | 45 | 31 | 15.6 (≈ 35 µM) | 59 | 43 | 43 | 50 | 7.81 (≈ 17.5 µM) | 15.6 (≈ 35 µM) | 64 | 7.81 (≈ 17.5 µM) | 52 | 42 | 7.81 (≈ 17.5 µM) | 31.2 (≈ 70.1 µM) | 36 | 15.6 (≈ 35 µM) | 40 | UI (Rattus norvegicus [1]): 31%; UI (Rattus norvegicus [9]): 0.59 no unit; UI (Rattus norvegicus [16]): 34%; MIC (Staphylococcus aureus): 31.2 µg/mL (≈ 70.1 µM); Activity (Rattus norvegicus [18]): 37%; MIC (Pseudomonas aeruginosa): 15.6 µg/mL (≈ 35 µM); Activity (Mus musculus [19]): 58%; Activity (Mus musculus [20]): 48% |
| CC(=O)N1CCN(c2ccc(OCC3COC(Cn4ccnc4)(c4ccc(Cl)cc4Cl)O3)cc2)CC1 (stereo not drawn) [KETOCONAZOLE] |  |  |  |  |  |  |  |  |  |  | 15.6 (≈ 29.4 µM) |  |  |  |  | 7.81 (≈ 14.7 µM) |  |  |  |  |  |
| Cc1nc2ccccc2c(=O)n1-c1ccc(NC(=O)CN/N=C/c2ccc(C(F)(F)F)cc2)cc1 | 39 | 39 | 48 | 35 | 15.6 (≈ 32.6 µM) | 65 | 46 | 46 | 53 | 7.81 (≈ 16.3 µM) | 7.81 (≈ 16.3 µM) | 70 | 7.81 (≈ 16.3 µM) | 57 | 47 | 15.6 (≈ 32.6 µM) | 31.2 (≈ 65.2 µM) | 40 | 3.9 (≈ 8.13 µM) | 45 | UI (Rattus norvegicus [1]): 32%; UI (Rattus norvegicus [9]): 0.55 no unit; UI (Rattus norvegicus [16]): 32%; MIC (Staphylococcus aureus): 15.6 µg/mL (≈ 32.6 µM); Activity (Rattus norvegicus [18]): 40%; MIC (Pseudomonas aeruginosa): 7.81 µg/mL (≈ 16.3 µM); Activity (Mus musculus [19]): 63%; Activity (Mus musculus [20]): 53% |
| Cc1nc2ccccc2c(=O)n1-c1ccc(NC(=O)CN/N=C/c2ccc(F)cc2)cc1 | 29 | 31 | 38 | 26 | 7.81 (≈ 18.2 µM) | 52 | 37 | 36 | 44 | 3.9 (≈ 9.08 µM) | 31.2 (≈ 72.8 µM) | 58 | 15.6 (≈ 36.4 µM) | 49 | 36 | 15.6 (≈ 36.4 µM) | 31.2 (≈ 72.8 µM) | 32 | 7.81 (≈ 18.2 µM) | 35 | UI (Rattus norvegicus [1]): 31%; UI (Rattus norvegicus [9]): 0.64 no unit; UI (Rattus norvegicus [16]): 34%; MIC (Staphylococcus aureus): 31.2 µg/mL (≈ 72.8 µM); Activity (Rattus norvegicus [18]): 33%; MIC (Pseudomonas aeruginosa): 7.81 µg/mL (≈ 18.2 µM); Activity (Mus musculus [19]): 54%; Activity (Mus musculus [20]): 42% |
| Cc1ccc(/C=N/NCC(=O)Nc2ccc(-n3c(C)nc4ccccc4c3=O)cc2)cc1 | 31 | 37 | 42 | 30 | 62.5 (≈ 147 µM) | 60 | 41 | 41 | 48 | 31.2 (≈ 73.4 µM) | 62.5 (≈ 147 µM) | 63 | 125 (≈ 294 µM) | 54 | 39 | 125 (≈ 294 µM) | 62.5 (≈ 147 µM) | 37 | 31.2 (≈ 73.4 µM) | 41 | UI (Rattus norvegicus [1]): 31%; UI (Rattus norvegicus [9]): 0.61 no unit; UI (Rattus norvegicus [16]): 34%; MIC (Staphylococcus aureus): 125 µg/mL (≈ 294 µM); Activity (Rattus norvegicus [18]): 35%; MIC (Pseudomonas aeruginosa): 62.5 µg/mL (≈ 147 µM); Activity (Mus musculus [19]): 59%; Activity (Mus musculus [20]): 47% |
| O=C([O-])Cc1ccccc1Nc1c(Cl)cccc1Cl.[Na+] [DICLOFENAC SODIUM] | 29 | 32 | 44 | 31 |  | 60 | 40 | 42 | 47 |  |  | 64 |  | 51 | 43 |  |  | 34 |  | 41 | Activity (Rattus norvegicus [18]): 36%; Activity (Mus musculus [19]): 55%; Activity (Mus musculus [20]): 49% |
| COc1ccc(/C=N/NCC(=O)Nc2ccc(-n3c(C)nc4ccccc4c3=O)cc2)cc1 | 19 | 23 | 32 | 22 | 62.5 (≈ 142 µM) | 42 | 31 | 29 | 35 | 31.2 (≈ 70.8 µM) | 62.5 (≈ 142 µM) | 48 | 62.5 (≈ 142 µM) | 37 | 30 | 62.5 (≈ 142 µM) | 125 (≈ 283 µM) | 24 | 62.5 (≈ 142 µM) | 28 | UI (Rattus norvegicus [1]): 51%; UI (Rattus norvegicus [9]): 0.86 no unit; UI (Rattus norvegicus [16]): 51%; MIC (Staphylococcus aureus): 125 µg/mL (≈ 283 µM); Activity (Rattus norvegicus [18]): 25%; MIC (Pseudomonas aeruginosa): 62.5 µg/mL (≈ 142 µM); Activity (Mus musculus [19]): 40%; Activity (Mus musculus [20]): 35% |
| Cc1nc2ccccc2c(=O)n1-c1ccc(NC(=O)CN/N=C\c2c[nH]c3ccccc23)cc1 | 21 | 18 | 25 | 20 | 31.2 (≈ 69.4 µM) | 41 | 28 | 29 | 30 | 15.6 (≈ 34.7 µM) | 31.2 (≈ 69.4 µM) | 41 | 31.2 (≈ 69.4 µM) | 36 | 32 | 62.5 (≈ 139 µM) | 62.5 (≈ 139 µM) | 19 | 31.2 (≈ 69.4 µM) | 20 | UI (Rattus norvegicus [1]): 31%; UI (Rattus norvegicus [9]): 0.72 no unit; UI (Rattus norvegicus [16]): 34%; MIC (Staphylococcus aureus): 62.5 µg/mL (≈ 139 µM); Activity (Rattus norvegicus [18]): 23%; MIC (Pseudomonas aeruginosa): 15.6 µg/mL (≈ 34.7 µM); Activity (Mus musculus [19]): 35%; Activity (Mus musculus [20]): 29% |
| O=C(O)c1cn(C2CC2)c2cc(N3CCNCC3)c(F)cc2c1=O [CIPROFLOXACIN] |  |  |  |  | 7.81 (≈ 23.6 µM) |  |  |  |  | 3.9 (≈ 11.8 µM) |  |  | 7.81 (≈ 23.6 µM) |  |  |  | 15.6 (≈ 47.1 µM) |  | 7.81 (≈ 23.6 µM) |  | MIC (Staphylococcus aureus): 15.6 µg/mL (≈ 47.1 µM); MIC (Pseudomonas aeruginosa): 7.81 µg/mL (≈ 23.6 µM) |
